We go through 23 molecules from ChEMBL document CHEMBL1122614, “Antiinflammatory activity of N-(2-benzoylphenyl)alanine derivatives” (J Med Chem, 1984).

Experiment [1] deals with Rattus norvegicus. The experiment can be described thus: Oral antiinflammatory activity, measured in rats at the dose of 316 mg/kg. The format is functional.
Experiment [2] deals with Rattus norvegicus. The experiment can be described thus: Percentage change in volume of pleural fluid in the 5-h Evans Blue-Carrageenan pleural assay for the compound at dose 100 mg/kg. Format: functional.
Experiment [3] has as its system Rattus norvegicus. The experiment can be described thus: Percentage change in volume of pleural fluid in the 5-h Evans Blue-Carrageenan pleural assay for the compound at dose 4 mg/kg. The format is functional.
For experiment [4], the system named is Rattus norvegicus. The experiment can be described thus: Percentage change in volume of pleural fluid in the 5-h Evans Blue-Carrageenan pleural assay for the compound at dose 20 mg/kg. The format is functional.
For experiment [5], the system named is Rattus norvegicus. The experiment can be described thus: Percentage change in volume of pleural fluid in the 5-h Evans Blue-Carrageenan pleural assay for Indomethacin 4.0 mg/kg. Format: functional.
A further experiment concerns the target T1, Cyclooxygenase (Bos taurus, UniProt O62664+O62698).
T1 sequence (O62664 whole entry): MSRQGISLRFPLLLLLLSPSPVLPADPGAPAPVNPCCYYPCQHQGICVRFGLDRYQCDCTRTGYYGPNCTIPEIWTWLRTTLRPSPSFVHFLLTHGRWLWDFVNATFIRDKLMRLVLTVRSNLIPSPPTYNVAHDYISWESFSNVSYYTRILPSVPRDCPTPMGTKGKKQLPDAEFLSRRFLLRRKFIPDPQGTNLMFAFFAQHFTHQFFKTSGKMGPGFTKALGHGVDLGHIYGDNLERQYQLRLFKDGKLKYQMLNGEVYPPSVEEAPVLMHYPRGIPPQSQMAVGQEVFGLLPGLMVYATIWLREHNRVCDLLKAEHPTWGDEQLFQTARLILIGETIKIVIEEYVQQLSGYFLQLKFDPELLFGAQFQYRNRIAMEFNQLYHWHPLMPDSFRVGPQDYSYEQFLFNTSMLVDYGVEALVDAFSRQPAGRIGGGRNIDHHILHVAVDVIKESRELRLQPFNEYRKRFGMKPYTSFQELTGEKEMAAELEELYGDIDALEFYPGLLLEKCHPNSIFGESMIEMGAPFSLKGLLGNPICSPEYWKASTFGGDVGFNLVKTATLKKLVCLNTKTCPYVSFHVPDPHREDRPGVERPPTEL
T1 sequence (O62698 whole entry): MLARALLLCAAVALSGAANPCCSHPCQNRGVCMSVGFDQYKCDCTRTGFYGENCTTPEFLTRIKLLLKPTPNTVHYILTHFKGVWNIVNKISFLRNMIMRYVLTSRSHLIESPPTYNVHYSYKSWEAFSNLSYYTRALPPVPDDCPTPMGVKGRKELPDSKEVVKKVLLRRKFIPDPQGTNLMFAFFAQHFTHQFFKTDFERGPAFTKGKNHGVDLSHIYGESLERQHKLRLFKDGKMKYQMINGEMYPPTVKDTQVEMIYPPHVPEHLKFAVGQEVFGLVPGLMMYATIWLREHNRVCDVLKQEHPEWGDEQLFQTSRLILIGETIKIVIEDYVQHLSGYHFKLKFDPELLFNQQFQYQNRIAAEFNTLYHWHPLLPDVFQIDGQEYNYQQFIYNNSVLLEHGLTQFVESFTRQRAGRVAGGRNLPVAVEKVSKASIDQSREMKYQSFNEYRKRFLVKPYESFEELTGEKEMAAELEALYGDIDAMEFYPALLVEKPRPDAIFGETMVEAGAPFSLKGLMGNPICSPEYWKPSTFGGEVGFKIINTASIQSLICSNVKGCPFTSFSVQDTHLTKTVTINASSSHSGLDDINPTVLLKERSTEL

The test system of experiment [6] is Rattus norvegicus. Nature of the experiment: Percentage change in volume of pleural fluid in the 5-h Evans Blue-Carrageenan pleural assay for the compound at (100 mg/kg). The format is functional.
The subject of experiment [7] is Rattus norvegicus. Nature of the experiment: Percentage change in volume of pleural fluid in the 5h- Evans Blue-Carrageenan pleural assay for the compound at dose 80 mg/kg. Format: functional.
Experiment [8] deals with Rattus norvegicus. Nature of the experiment: Percentage change in volume of pleural fluid in the 5-h Evans Blue-Carrageenan pleural assay for the compound at dose 100 m/kg. Format: functional.
Experiment [9] has as its system Rattus norvegicus. The experiment can be described thus: Percentage change in volume of pleural fluid in the 5-h Evans Blue-Carrageenan pleural assay for the compound at dose 20 m/kg. Format: functional.
Experiment [10] deals with Rattus norvegicus. The experiment can be described thus: Percentage change in volume of pleural fluid in the 5-h Evans Blue-Carrageenan pleural assay for the compound at dose 80 m/kg. Format: functional.
For experiment [11], the system named is Rattus norvegicus. Nature of the experiment: Percentage change in volume of pleural fluid in the 5-h Evans Blue-Carrageenan pleural assay for Indomethacin at dose 4.0 mg/kg. The format is functional.
Experiment [12] is filed under the species Rattus norvegicus. The experiment can be described thus: Percentage change in volume of pleural fluid in the 5-h Evans Blue-Carrageenan pleural assay for the compound. Format: functional.
Experiment [13] deals with Rattus norvegicus. The experiment can be described thus: Relative Oral Anti inflammatory activity in the 5-h Evans Blue-Carrageenan pleural assay using indomethacin as reference compound; IA = inactive at 316 mg/kg. On the set-up: dose 316 mg/kg. Format: functional, organism-based.

The structures appear in SMILES notation. Where “and” joins values, the source holds several entries; their conditions need not be identical. Equal entries are not always repeated. Calls of active or inactive are those of the source. The calls are words filed in the database; no cut-off is given here.

Description for Cyclooxygenase: Inhibition of PG synthetase activity obtained from bovine seminal vesicles

Turning to `CC(Nc1ccc(Cl)cc1C(=O)c1ccccc1)C(=O)O` (configuration not stated), the Efficacy ratio with Rattus norvegicus [1] (316 mg/kg) was 1.96 and 1.57. In addition, the Change is -28% and -18% in the experiment with Rattus norvegicus [2] (100 mg/kg); 6% in the experiment on Rattus norvegicus [3].

Turning to `Cc1ccc(C(=O)c2ccccc2)c(NC(C)C(=O)O)c1` (configuration not stated), the values for the Change with Rattus norvegicus [4] and with Rattus norvegicus [5] were -19% and -28%, respectively. For the same molecule, the Efficacy ratio in the experiment on Rattus norvegicus [1] (316 mg/kg) is 1.88 and 1.46.

A word on the IC50: it is the concentration that inhibits the measured activity by half. Lower therefore signals higher potency. `Cc1ccc2c(-c3ccccc3)nc(=O)n(C(C)C)c2c1` [PROQUAZONE]: the IC50 at Cyclooxygenase was 0.07 µM.

For `Cc1c(NCC(=O)O)cccc1C(=O)c1ccc(Cl)cc1`, the IC50 against Cyclooxygenase is over 1000 µM.

As to `CC(Nc1cccc(C(=O)c2ccccc2)c1)C(=O)O.Cl` (configuration not stated), the Change in the experiment on Rattus norvegicus [5] was -32%; in the experiment with Rattus norvegicus [6], -15%. In the experiment with Rattus norvegicus [1] (316 mg/kg), the Efficacy ratio was 1.38 and 1.4.

Regarding `CC(Nc1ccccc1C(=O)c1ccc(Cl)cc1)C(=O)O` (configuration not stated), the results for the Change in the experiment with Rattus norvegicus [4], in the experiment with Rattus norvegicus [7] and in the experiment with Rattus norvegicus [5] were -5%, -33% and -30%, respectively. Further, the Efficacy ratio in the experiment on Rattus norvegicus [1] (316 mg/kg) is 1.62 and 1.42. This molecule returned an IC50 against Cyclooxygenase of 60 µM.

For `COc1ccc(NC(C)C(=O)O)c(C(=O)c2ccccc2)c1` (configuration not stated), the Efficacy ratio in the experiment on Rattus norvegicus [1] (316 mg/kg) was 1.06 and 1.52.

For `O=C(O)CCNc1ccccc1C(=O)c1ccccc1`, the Change with Rattus norvegicus [5] is -41%; in the experiment on Rattus norvegicus [6], -9%. Also, the Efficacy ratio with Rattus norvegicus [1] (316 mg/kg) is 1.35 and 1.46.

In the case of `CC(Nc1ccccc1C(=O)c1ccccc1)C(=O)O` (configuration not stated), the Change was -28% in the experiment on Rattus norvegicus [8]; 4% in the experiment with Rattus norvegicus [9]; -32% with Rattus norvegicus [10]; -20% and -30% with Rattus norvegicus [11] (4 mg/kg). In addition, the Efficacy ratio in the experiment on Rattus norvegicus [1] (316 mg/kg) is 1.6 and 1.66.

As to `CC(Nc1ccccc1Oc1ccccc1)C(=O)O` (configuration not stated), the Efficacy ratio with Rattus norvegicus [1] (316 mg/kg) was 1.18 and 1.52.

As to `CN(CC(=O)O)c1ccccc1C(=O)c1ccccc1.Cl`, the Change with Rattus norvegicus [5] is recorded as -38%; in the experiment listed under Rattus norvegicus [12], -13%.

As to `CC(CNc1ccccc1C(=O)c1ccccc1)C(=O)O.Cl` (configuration not stated), the Efficacy ratio in the experiment on Rattus norvegicus [1] (316 mg/kg) is 0.97 and 1.4.

As for `Cc1ccc(C(=O)c2ccccc2NC(C)C(=O)O)cc1` (configuration not stated), the Change in the experiment with Rattus norvegicus [5] is -35%; with Rattus norvegicus [2], -21%; with Rattus norvegicus [3] it was -8%. The Efficacy ratio in the experiment on Rattus norvegicus [1] (316 mg/kg) is 1.39 and 1.52.

Consider `CC(C)Nc1ccccc1C(=O)c1ccccc1.Cl`, for which the Efficacy ratio with Rattus norvegicus [1] (316 mg/kg) is 1.13 and 1.46.

`COc1ccc(C(=O)c2ccccc2NC(C)C(=O)O)cc1` (configuration not stated): the results for the Change in the experiment with Rattus norvegicus [5], in the experiment on Rattus norvegicus [2] and in the experiment with Rattus norvegicus [3] were -35%, -22% and -9%, respectively. Also, the Efficacy ratio in the experiment with Rattus norvegicus [1] (316 mg/kg) is 1.8 and 1.94.

Consider `CC(Nc1ccccc1C(=O)c1ccc(Cl)cc1Cl)C(=O)O` (configuration not stated), for which the results for the Change in the experiment on Rattus norvegicus [5], with Rattus norvegicus [2] and in the experiment with Rattus norvegicus [3] were -32%, -34% and -3%, respectively. The Efficacy ratio in the experiment on Rattus norvegicus [1] (316 mg/kg) is 1.44 and 1.52.

For the molecule `CC(Nc1ccccc1C(=O)c1ccc(Br)cc1)C(=O)O` (configuration not stated), the Change in the experiment with Rattus norvegicus [5] is -25%; with Rattus norvegicus [2], -29%; in the experiment on Rattus norvegicus [3], -3%. Besides, the Efficacy ratio with Rattus norvegicus [1] (316 mg/kg) is 1.43 and 1.46.

`Cc1ccc(NC(C)C(=O)O)c(C(=O)c2ccccc2)c1` (configuration not stated): the Efficacy ratio in the experiment with Rattus norvegicus [1] is 1.52. Moreover, the Change is listed as -15% with Rattus norvegicus [2] and -31% in the experiment on Rattus norvegicus [11].

For the molecule `Cc1ccc2c(-c3ccccc3)nc(=O)n(C(C)C(=O)O)c2c1` (configuration not stated), the Relative potency entry in the experiment on Rattus norvegicus [13] was “inactive”. Further, the IC50 on Cyclooxygenase was 300 µM.

Turning to `O=C(O)CNc1ccccc1C(=O)c1ccccc1`, in the experiment on Rattus norvegicus [1] (316 mg/kg), the Efficacy ratio is 0.98 and 1.47.

In the case of `CC(Nc1ccc(Cl)cc1C(=O)c1ccc(Br)cc1)C(=O)O` (configuration not stated), in the experiment on Rattus norvegicus [1] (316 mg/kg), the Efficacy ratio is 1.1 and 1.57.

In the case of `CC(Nc1ccc(C(=O)c2ccccc2)cc1)C(=O)O` (configuration not stated), the Change is listed as -31% in the experiment with Rattus norvegicus [5] and -4% in the experiment on Rattus norvegicus [6]. Also, the Efficacy ratio in the experiment on Rattus norvegicus [1] (316 mg/kg) was 1.37 and 1.91.

Regarding `CC(Oc1ccccc1C(=O)c1ccccc1)C(=O)O` (configuration not stated), the Efficacy ratio in the experiment with Rattus norvegicus [1] (316 mg/kg) is 0.98 and 1.65.
